# Test results reported in US10130710B2 (priority 2014, dated 2018).
# Where a name gives a salt, the structure may show the parent alone.
# Type: physicochemical
# Conditions: Log10(concentration in octanol phase/concentration in aqueous phase)
# From the text: Incidentally, the octanol-water partition coefficient herein is obtained by adding a target component to be measured into a flask charged with n-octanol and an aqueous buffer of pH 7 or water, shaking the resultant, and performing calculation, in accordance with the following equation, based on active ingredient concentrations in respective phases. Octanol-water partition coefficient=Log10(concentration in octanol phase/concentration in aqueous phase)
row,Structure (SMILES),water-octanol partition coefficient
1,CC(C)CCCCCCCOC(=O)C(C)(C)C [isodecyl neopentanoate],5.9
2,CC(C)CCCCCCOC(=O)CCCCCC(C)C [isononyl isononanoate],6.5
3,CCCCCCCCCCCCCC(=O)OC(C)C [isopropyl myristate],7.2
4,CC(C)CCCCCCCCCCOC(=O)CCCCCC(C)C [isotridecyl isononanoate],9.2
5,"CC12CC3CC(C)(C1)CC(N)(C3)C2 [memantine hydrochloride, reference compound]",0.3
6,CC(C)CCCCCC(=O)OCC(C)(C)COC(=O)CCCCCC(C)C [neopentyl glycol diisononanoate],7.2
7,CCCCCCCCCCCCCC(=O)OCC(CCCCCCCC)CCCCCCCCCC (centres unmarked) [octyldodecyl myristate],16.0
8,"O.O.O.O.O.O=P([O-])(O)C(O)(Cc1cccnc1)P(=O)(O)O.O=P([O-])(O)C(O)(Cc1cccnc1)P(=O)(O)O.[Na+].[Na+] [risedronate monosodium hemipentahydrate, reference compound]",−5.0
9,CC(C)CCCC(C)CCCC(C)CCCCC(C)CCCC(C)CCCC(C)C (centres unmarked) [squalane],14.7
10,CCCCC(CC)C(=O)OCC(COC(=O)C(CC)CCCC)OC(=O)C(CC)CCCC (centres unmarked) [triethylhexanoin],8.9
11,"CCCc1nc(C)c2c(=O)[nH]c(-c3cc(S(=O)(=O)N4CCN(CC)CC4)ccc3OCC)nn12 [verdenafil hydrochloride hydrate, reference compound]",0.0
